Source: patent US20250268903A1, “RXFP1 AGONISTS” (BRISTOL-MYERS SQUIBB COMPANY, priority 2021, published 2025)

Target: T1, human RXFP1 (Homo sapiens, UniProt Q9HBX9)
T1 construct: expressed in transfected cells
T1 sequence (Q9HBX9 1-757): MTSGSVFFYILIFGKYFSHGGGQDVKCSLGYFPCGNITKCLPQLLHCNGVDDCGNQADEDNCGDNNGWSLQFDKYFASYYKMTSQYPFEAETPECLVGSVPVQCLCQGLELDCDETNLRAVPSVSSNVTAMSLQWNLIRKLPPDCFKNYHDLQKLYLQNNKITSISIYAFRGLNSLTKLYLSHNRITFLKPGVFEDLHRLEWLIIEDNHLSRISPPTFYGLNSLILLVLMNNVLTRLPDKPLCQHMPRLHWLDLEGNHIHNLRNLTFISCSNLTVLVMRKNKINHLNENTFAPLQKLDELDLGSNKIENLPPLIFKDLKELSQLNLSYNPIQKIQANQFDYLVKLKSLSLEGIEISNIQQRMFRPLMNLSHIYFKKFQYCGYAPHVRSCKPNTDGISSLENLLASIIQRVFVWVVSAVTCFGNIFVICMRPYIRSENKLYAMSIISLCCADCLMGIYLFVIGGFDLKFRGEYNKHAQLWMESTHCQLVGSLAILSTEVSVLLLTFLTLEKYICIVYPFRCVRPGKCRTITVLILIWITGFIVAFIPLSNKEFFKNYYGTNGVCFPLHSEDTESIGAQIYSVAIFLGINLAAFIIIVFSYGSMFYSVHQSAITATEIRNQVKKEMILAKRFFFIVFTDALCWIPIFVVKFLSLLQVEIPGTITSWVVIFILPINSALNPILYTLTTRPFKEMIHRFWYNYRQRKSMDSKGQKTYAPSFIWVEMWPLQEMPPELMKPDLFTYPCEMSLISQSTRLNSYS
Experiment: hRXFP1 HEK293 cAMP assay (HTRF)
Format: cell-based
Settings: HEK293 cells stably expressing human RXFP1, 30 min at room temperature
Method in brief: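 HEK293 cells stably expressing human RXFP1 were suspended in HBSS (Ca/Mg) with 20 mM HEPES, 0.05% BSA and 0.5 mM IBMX, then treated with compounds (0.010 nM–50 μM, 2% DMSO final) for 30 min at room temperature. Intracellular cAMP was measured by HTRF, and potency was derived from 4-parameter logistic fits.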

| Structure (SMILES) | EC50 [nM] |
| --- | --- |
| COc1ccc(COC2CCOC2)cc1C(=O)N[C@@H]1C2CCC(/C2=C/C(F)(F)F)[C@@H]1C(=O)Nc1ccc(F)c(C(F)(F)F)c1 (stereo partly drawn) [Example 27, (2S,3R,7Z)-N-[4-fluoro-3-(trifluoromethyl)phe-nyl]-3-{2-methoxy-5-[(oxolan-3-yloxy)methyl]benza-mido}-7-(2,2,2-trifluoroethylidene)bi-cyclo[2.2.1]heptane-2-carboxamide] | 4680 |
| COc1ccc(COCCC(=O)O)cc1C(=O)N[C@@H]1C2CCC(/C2=C/c2ccccc2)[C@@H]1C(=O)Nc1ccc(F)c(C(F)(F)F)c1 (stereo partly drawn) [Example 28, 3-[(3-{[(2R,3S,7Z)-3-{[4-fluoro-3-(trifluoromethyl)phe-nyl]carbamoyl}-7-(phenylmethylidene)bicyclo[2.2.1]heptan-2-yl]carbamoyl}-4-methoxyphenyl)meth-oxy]propanoic acid] | 56 |
| COc1ccc(COCC(=O)O)cc1C(=O)N[C@@H]1C2CCC(/C2=C/c2ccccc2)[C@@H]1C(=O)Nc1ccc(F)c(C(F)(F)F)c1 (stereo partly drawn) [Example 29, 2-[(3-{[(2R,3S,7Z)-3-{[4-fluoro-3-(trifluoromethyl)phe-nyl]carbamoyl}-7-(phenylmethylidene)bicyclo[2.2.1]heptan-2-yl]carbamoyl}-4-methoxyphenyl)meth-oxy]acetic acid] | 400 |
| COc1ccc(COCCC(=O)O)cc1C(=O)N[C@@H]1C2CCC(C2=C(C)C)[C@@H]1C(=O)Nc1ccc(F)c(C(F)(F)F)c1 (stereo partly drawn) [Example 30, 3-[(3-{[(2R,3S)-3-{[4-fluoro-3-(trifluoromethyl)phe-nyl]carbamoyl}-7-(propan-2-ylidene)bicyclo[2.2.1]heptan-2-yl]carbamoyl}-4-methoxyphenyl)meth-oxy]propanoic acid] | 710 |
| COC/C=C/c1ccc(OC)c(C(=O)N[C@@H]2C3CCC(C3=C(C)C)[C@@H]2C(=O)Nc2ccc(F)c(C(F)(F)F)c2)c1 (stereo partly drawn) [Example 31, (2S,3R)—N-[4-fluoro-3-(trifluoromethyl)phenyl]-3-{2-methoxy-5-[(1E)-3-methoxyprop-1-en-1-yl]benzamido}-7-(propan-2-ylidene) bicyclo[2.2.1]heptane-2-carboxamide] | 180 |
| COc1ccc(/C=C/CCO)cc1C(=O)N[C@@H]1C2CCC(C2=C(C)C)[C@@H]1C(=O)Nc1ccc(F)c(C(F)(F)F)c1 (stereo partly shown) [Example 32] | 740 |
| COC(=O)OCC/C=C/c1ccc(OC)c(C(=O)N[C@H]2[C@@H](C(=O)Nc3ccc(F)c(C(F)(F)F)c3)[C@H]3CC[C@@H]2C3=C(C)C)c1 [Example 33, (E)-4-(3-(((1R,2R,3S,4R)-3-((4-fluoro-3-(trifluoromethyl)phenyl)carbamoyl)-7-(propan-2-ylidene)bicyclo[2.2.1]heptan-2-yl)carbamoyl)-4-methoxyphenyl) but-3-en-1-yl methyl carbonate] | 580 |
| COc1ccc(C2=CC(=O)CCC2)cc1C(=O)N[C@@H]1C2CCC(/C2=C/C(F)(F)F)[C@@H]1C(=O)Nc1ccc(F)c(C(F)(F)F)c1 (stereo partly shown) [Example 34] | 470 |
| COc1ccc(C2CCCCC2)cc1C(=O)N[C@@H]1C2CCC(/C2=C/C(F)(F)F)[C@@H]1C(=O)Nc1ccc(F)c(C(F)(F)F)c1 (stereo partly drawn) [Example 39, (2S,3R,7Z)-3-(5-cyclohexyl-2-methoxybenzamido)-N-[4-fluoro-3-(trifluoromethyl)phenyl]-7-(2,2,2-trifluoroethylidene) bicyclo[2.2.1]heptane-2-carboxamide] | 611 |
| COc1ccc(C2CCCC2)cc1C(=O)N[C@@H]1C2CCC(/C2=C/C(F)(F)F)[C@@H]1C(=O)Nc1ccc(F)c(C(F)(F)F)c1 (stereo partly drawn) [Example 47, (2S,3R,7Z)-3-(5-cyclopentyl-2-methoxybenzamido)-N-[4-fluoro-3-(trifluoroemthyl)phe-nyl]-7-(2,2,2-trifluoroethylidene) bicyclo[2.2.1]heptane-2-carboxamide] | 926 |
| COc1ccc(CCO)cc1C(=O)NC1C2CCC(/C2=C/C(F)(F)F)[C@@H]1C(=O)Nc1ccc(F)c(C(F)(F)F)c1 (stereo partly shown) [Example 55] | 781 |
| COc1ccc(C#CCO)cc1C(=O)N[C@@H]1C2CCC(/C2=C/C(F)(F)F)[C@@H]1C(=O)Nc1ccc(F)c(C(F)(F)F)c1 (stereo partly shown) [Example 68] | 144 |
| COc1ccc(C#CCOC(=O)Nc2ccccc2)cc1C(=O)N[C@@H]1C2CCC(/C2=C/C(F)(F)F)[C@@H]1C(=O)Nc1ccc(F)c(C(F)(F)F)c1 (stereo partly drawn) [Example 69, 3-(3-{[(2R,3S,7Z)-3-{[4-fluoro-3-(trifluoromethyl)phe-nyl]carbamoyl}-7-(2,2,2-trifluoroethylidene)bi-cyclo[2.2.1]heptan-2-yl]carbamoyl}-4-methoxyphenyl)prop-2-yn-1-yl N-phenylcarbamate] | 95 |
| COc1ccc(C#CC(C)(C)O)cc1C(=O)N[C@@H]1C2CCC(/C2=C/C(F)(F)F)[C@@H]1C(=O)Nc1ccc(F)c(C(F)(F)F)c1 (stereo partly drawn) [Example 70, (2S,3R,7Z)-N-[4-fluoro-3-(trifluoromethyl)phe-nyl]-3-[5-(3-hydroxy-3-methylbut-1-yn-1-yl)-2-methoxybenzamido]-7-(2,2,2-trifluoroethylidene)bi-cyclo[2.2.1]heptane-2-carboxamide] | 309 |

Next, values leading:

| EC50 [nM] | Structure (SMILES) |
| --- | --- |
| 118 | COc1ccc(C#C[C@H](C)O)cc1C(=O)N[C@@H]1C2CCC(/C2=C/C(F)(F)F)[C@@H]1C(=O)Nc1ccc(F)c(C(F)(F)F)c1 (stereo partly drawn) [Example 71, (2S,3R,7Z)-N-[4-fluoro-3-(trifluoromethyl)phe-nyl]-3-{5-[(3S)-3-hydroxybut-1-yn-1-yl]-2-methoxybenzamido}-7-(2,2,2-trifluoroethylidene)bi-cyclo[2.2.1]heptane-2-carboxamide] |
| 134 | COc1ccc(C#C[C@@H](C)O)cc1C(=O)N[C@@H]1C2CCC(/C2=C/C(F)(F)F)[C@@H]1C(=O)Nc1ccc(F)c(C(F)(F)F)c1 (stereo partly drawn) [Example 72, (2S,3R,7Z)-N-[4-fluoro-3-(trifluoromethyl)phe-nyl]-3-{5-[(3R)-3-hydroxybut-1-yn-1-yl]-2-methoxybenzamido}-7-(2,2,2-trifluoroethylidene)bi-cyclo[2.2.1]heptane-2-carboxamide] |
| 88 | COc1ccc(C#C[C@@H](C)O)cc1C(=O)N[C@@H]1C2CCC(/C2=C/C2CC2)[C@@H]1C(=O)Nc1ccc(F)c(C(F)(F)F)c1 (stereo partly drawn) [Example 73, (2S,3R,7Z)-7-(cyclopropylmethyli-dene)-N-[4-fluoro-3-(trifluoromethyl)phe-nyl]-3-{5-[(3R)-3-hydroxybut-1-yn-1-yl]-2-methoxybenzamido} bicyclo[2.2.1]heptane-2-carboxamide] |
| 3550 | COc1cc(C#CCO)ccc1C(=O)N[C@@H]1C2CCC(/C2=C/C(F)(F)F)[C@@H]1C(=O)Nc1ccc(F)c(C(F)(F)F)c1 (stereo partly drawn) [Example 74, (2S,3R,7Z)-N-[4-fluoro-3-(trifluoromethyl)phe-nyl]-3-[4-(3-hydroxyprop-1-yn-1-yl)-2-methoxybenzamido]-7-(2,2,2-trifluoroethylidene)bi-cyclo[2.2.1]heptane-2-carboxamide] |
| 91 | C#Cc1ccc(OC)c(C(=O)N[C@@H]2C3CCC(/C3=C/C(F)(F)F)[C@@H]2C(=O)Nc2ccc(F)c(C(F)(F)F)c2)c1 (stereo partly drawn) [Example 75, (2S,3R,7Z)-3-(5-ethynyl-2-methoxybenzamido)-N-[4-fluoro-3-(trifluoromethyl)phe-nyl]-7-(2,2,2-trifluoroethylidene)bi-cyclo[2.2.1]heptane-2-carboxamide] |
| 66 | COc1ccc(C#CCCO)cc1C(=O)N[C@@H]1C2CCC(/C2=C/C(F)(F)F)[C@@H]1C(=O)Nc1ccc(F)c(C(F)(F)F)c1 (stereo partly drawn) [Example 76, (2S,3R,7Z)-N-[4-fluoro-3-(trifluoromethyl)phe-nyl]-3-[5-(4-hydroxybut-1-yn-1-yl)-2-methoxybenzamido]-7-(2,2,2-trifluoroethylidene)bi-cyclo[2.2.1]heptane-2-carboxamide] |
| 62 | COc1ccc(C#CCCCO)cc1C(=O)N[C@@H]1C2CCC(/C2=C/C(F)(F)F)[C@@H]1C(=O)Nc1ccc(F)c(C(F)(F)F)c1 (stereo partly drawn) [Example 77, (2S,3R,7Z)-N-[4-fluoro-3-(trifluoromethyl)phe-nyl]-3-[5-(5-hydroxypent-1-yn-1-yl)-2-methoxybenzamido]-7-(2,2,2-trifluoroethylidene)bi-cyclo[2.2.1]heptane-2-carboxamide] |
| 229 | COc1ccc(C#CCCCCO)cc1C(=O)N[C@@H]1C2CCC(/C2=C/C(F)(F)F)[C@@H]1C(=O)Nc1ccc(F)c(C(F)(F)F)c1 (stereo partly drawn) [Example 78, (2S,4R,7Z)-N-[4-fluoro-3-(trifluoromethyl)phe-nyl]-3-[5-(6-hydroxyhex-1-yn-1-yl)-2-methoxybenzamido]-7-(2,2,2-trifluoroethylidene)bi-cyclo[2.2.1]heptane-2-carboxamide] |
